Tested on: Endogenous Huntingtin Protein
Experiment: Endogenous Huntingtin Protein Assay (Meso Scale Discovery ELISA-based electrochemiluminescence)
Format: cell-based
Settings: MSD plates coated with MW1 (expanded polyglutamine) or MAB2166 capture antibody; lysates
How it was run: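 MSD electrochemiluminescence sandwich ELISA: MW1 (expanded polyQ) or MAB2166 capture antibody at 1 μg/mL, samples incubated overnight at 4° C. Detection with rabbit monoclonal #5656S then SULFO-TAG anti-rabbit antibody, each 0.25 μg/mL for 1 h at room temperature.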

| IC50 [nM] | SMILES |
| --- | --- |
| 100 to 500 | CC1(C)CC(n2nnc3cc(-c4ccc(-c5ccsc5)cc4O)nnc32)CC(C)(C)N1 [Cpd 89, 2-[3-(2,2,6,6-tetramethylpiperidin-4-yl)-3H-[1,2,3]triazolo[4,5-c]pyridazin-6-yl]-5-(thiophen-3-yl)phenol] |
| 100 to 500 | CC1(C)CC(n2nnc3cc(-c4ccc(-c5ccn6ccnc6c5)cc4O)nnc32)CC(C)(C)N1 [Cpd 90, 5-(imidazo[1,2-a]pyridin-7-yl)-2-[3-(2,2,6,6-tetramethylpiperidin-4-yl)-3H-[1,2,3]triazolo[4,5-c]pyridazin-6-yl]phenol] |
| 1000 to 3000 | CC1(C)CC(n2nnc3cc(-c4ccc(-c5ncc[nH]5)cc4O)nnc32)CC(C)(C)N1 [Cpd 91, 5-(1H-imidazol-2-yl)-2-[3-(2,2,6,6-tetramethylpiperidin-4-yl)-3H-[1,2,3]triazolo[4,5-c]pyridazin-6-yl]phenol] |
| 1000 to 3000 | Cn1cnc2cc(-c3cc4nnn(C5CC(C)(C)NC(C)(C)C5)c4nn3)c(O)cc21 [Cpd 92, 1-methyl-5-[3-(2,2,6,6-tetramethylpiperidin-4-yl)-3H-[1,2,3]triazolo[4,5-c]pyridazin-6-yl]-1H-benzimidazol-6-ol] |
| ≤ 100 | CC1(C)CC(n2nnc3cc(-c4ccc(-c5cc[nH]c(=O)c5)cc4O)nnc32)CC(C)(C)N1 [Cpd 93, 4-{3-hydroxy-4-[3-(2,2,6,6-tetramethylpiperidin-4-yl)-3H-[1,2,3]triazolo[4,5-c]pyridazin-6-yl]phenyl}pyridin-2(1H)-one] |
| 500 to 1000 | CC1(C)CC(n2nnc3cc(-c4cc5cn[nH]c5cc4O)nnc32)CC(C)(C)N1 [Cpd 94, 5-[3-(2,2,6,6-tetramethylpiperidin-4-yl)-3H-[1,2,3]triazolo[4,5-c]pyridazin-6-yl]-1H-indazol-6-ol] |
| 100 to 500 | CC1(C)CC(n2nnc3cc(-c4ccc(-c5ccoc5)cc4O)nnc32)CC(C)(C)N1 [Cpd 95, 5-(furan-3-yl)-2-[3-(2,2,6,6-tetramethylpiperidin-4-yl)-3H-[1,2,3]triazolo[4,5-c]pyridazin-6-yl]phenol] |
| ≤ 100 | CC1(C)CC(n2nnc3cc(-c4ccc(-c5nccs5)cc4O)nnc32)CC(C)(C)N1 [Cpd 96, 2-[3-(2,2,6,6-tetramethylpiperidin-4-yl)-3H-[1,2,3]triazolo[4,5-c]pyridazin-6-yl]-5-(1,3-thiazol-2-yl)phenol] |
| ≤ 100 | Cc1nc2cc(-c3cc4nnn(C5CC(C)(C)NC(C)(C)C5)c4nn3)c(O)cc2[nH]1 [Cpd 97, 2-methyl-5-[3-(2,2,6,6-tetramethylpiperidin-4-yl)-3H-[1,2,3]triazolo[4,5-c]pyridazin-6-yl]-1H-benzimidazol-6-ol] |
| ≤ 100 | Cn1cc(-c2ccc(-c3cc4cnn(C5CC(C)(C)NC(C)(C)C5)c4nn3)c(O)c2)cn1 [Cpd 98, 5-(1-methyl-1H-pyrazol-4-yl)-2-[1-(2,2,6,6-tetramethylpiperidin-4-yl)-1H-pyrazolo[3,4-c]pyridazin-5-yl]phenol] |
| ≤ 100 | CC1(C)CC(n2nnc3cc(-c4ccc(-c5ccnc(N)c5)cc4O)nnc32)CC(C)(C)N1 [Cpd 99, 5-(2-aminopyridin-4-yl)-2-[3-(2,2,6,6-tetramethylpiperidin-4-yl)-3H-[1,2,3]triazolo[4,5-c]pyridazin-6-yl]phenol] |
| 1000 to 3000 | CN(C)c1cc(-c2ccc(-c3cc4nnn(C5CC(C)(C)NC(C)(C)C5)c4nn3)c(O)c2)ccn1 [Cpd 100, 5-[2-(dimethylamino)pyridin-4-yl]-2-[3-(2,2,6,6-tetramethylpiperidin-4-yl)-3H-[1,2,3]triazolo[4,5-c]pyridazin-6-yl]phenol] |
| 500 to 1000 | CC1(C)CC(n2nnc3cc(-c4ccc(-c5ccncc5F)cc4O)nnc32)CC(C)(C)N1 [Cpd 101, 5-(3-fluoropyridin-4-yl)-2-[3-(2,2,6,6-tetramethylpiperidin-4-yl)-3H-[1,2,3]triazolo[4,5-c]pyridazin-6-yl]phenol] |
| ≤ 100 | [2H]C([2H])([2H])n1cc(-c2ccc(-c3cc4cnn(C5CC(C)(C)NC(C)(C)C5)c4nn3)c(O)c2)cn1 [Cpd 102, 5-[1-(^2H3)methyl-1H-pyrazol-4-yl]-2-[1-(2,2,6,6-tetramethylpiperidin-4-yl)-1H-pyrazolo[3,4-c]pyridazin-5-yl]phenol] |
| 100 to 500 | CC1(C)CC(n2nnc3cc(-c4ccc(-c5ccc(OC(F)F)cn5)cc4O)nnc32)CC(C)(C)N1 [Cpd 103, 5-[5-(difluoromethoxy)pyridin-2-yl]-2-[3-(2,2,6,6-tetramethylpiperidin-4-yl)-3H-[1,2,3]triazolo[4,5-c]pyridazin-6-yl]phenol] |
| ≤ 100 | CNc1cc(-c2ccc(-c3cc4nnn(C5CC(C)(C)NC(C)(C)C5)c4nn3)c(O)c2)ccn1 [Cpd 104, 5-[2-(methylamino)pyridin-4-yl]-2-[3-(2,2,6,6-tetramethylpiperidin-4-yl)-3H-[1,2,3]triazolo[4,5-c]pyridazin-6-yl]phenol] |
| ≤ 100 | CC1(C)C=C(c2coc3cc(-c4ccc(-c5cn[nH]c5)cc4O)nnc23)CC(C)(C)N1 [Cpd 105, 5-(1H-pyrazol-4-yl)-2-[7-(2,2,6,6-tetramethyl-1,2,3,6-tetrahydropyridin-4-yl)furo[3,2-c]pyridazin-3-yl]phenol] |
| ≤ 100 | CC1(C)CC(n2nnc3cc(-c4ccc(-c5cncs5)cc4O)nnc32)CC(C)(C)N1 [Cpd 107, 2-[3-(2,2,6,6-tetramethylpiperidin-4-yl)-3H-[1,2,3]triazolo[4,5-c]pyridazin-6-yl]-5-(1,3-thiazol-5-yl)phenol] |
| ≤ 100 | Cc1n[nH]cc1-c1ccc(-c2cc3nnn(C4CC(C)(C)NC(C)(C)C4)c3nn2)c(O)c1 [Cpd 108, 5-(3-methyl-1H-pyrazol-4-yl)-2-[3-(2,2,6,6-tetramethylpiperidin-4-yl)-3H-[1,2,3]triazolo[4,5-c]pyridazin-6-yl]phenol] |
| ≤ 100 | CC1(C)CC(n2nnc3cc(-c4ccc(-c5c[nH]nc5C#N)cc4O)nnc32)CC(C)(C)N1 [Cpd 109, 4-{3-hydroxy-4-[3-(2,2,6,6-tetramethylpiperidin-4-yl)-3H-[1,2,3]triazolo[4,5-c]pyridazin-6-yl]phenyl}-1H-pyrazole-3-carbonitrile] |
| 100 to 500 | CC1(C)CC(n2nnc3cc(-c4ccc(-c5ncc(C#N)s5)cc4O)nnc32)CC(C)(C)N1 [Cpd 110, 2-{3-hydroxy-4-[3-(2,2,6,6-tetramethylpiperidin-4-yl)-3H-[1,2,3]triazolo[4,5-c]pyridazin-6-yl]phenyl}-1,3-thiazole-5-carbonitrile] |
| ≤ 100 | CC1(C)CC(n2nnc3cc(-c4ccc(-c5ncco5)cc4O)nnc32)CC(C)(C)N1 [Cpd 111, 5-(1,3-oxazol-2-yl)-2-[3-(2,2,6,6-tetramethylpiperidin-4-yl)-3H-[1,2,3]triazolo[4,5-c]pyridazin-6-yl]phenol] |
| ≤ 100 | CC1(C)CC(n2nnc3cc(-c4ccc(-c5c[nH]nn5)cc4O)nnc32)CC(C)(C)N1 [Cpd 112, 2-[3-(2,2,6,6-tetramethylpiperidin-4-yl)-3H-[1,2,3]triazolo[4,5-c]pyridazin-6-yl]-5-(1H-1,2,3-triazol-4-yl)phenol] |
| ≤ 100 | COc1cc(-c2ccc(-c3cc4nnn(C5CC(C)(C)NC(C)(C)C5)c4nn3)c(O)c2)ncn1 [Cpd 113, 5-(6-methoxypyrimidin-4-yl)-2-[3-(2,2,6,6-tetramethylpiperidin-4-yl)-3H-[1,2,3]triazolo[4,5-c]pyridazin-6-yl]phenol] |
